Experiment: recombinant UMI read abundance after kanamycin selection (control-corrected) (log10(CPM+1)); higher = more efficient recombination; extreme values may be limits of the assay; sequences stand for … in AGTGCAGAGAAAATCGGCCAGTTTTCTCTGCCTGCAGTCCGCATGCCGTGGGACCCCTTGGGTTCTAACCTGTTGCCTAGATTTATGCAGCGGACTGCCTTTCTCCCAAAGTGATAAACCGG…AGGTTGGTTTCACT; site = the 11-nt donor
Outline: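 Values, expressed as log10(CPM+1), derive from recombinant UMI counts converted to CPM, averaged across replicates and scaled by control-derived factors. Plating was with IPTG (0.07 mM) plus kanamycin or unselected, two replicates each. The screen pooled donor and donor-binding-loop pairs for the IS621 bridge recombinase in Escherichia coli.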
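Note: IS621 bridge recombinase in Escherichia coli cells against a fixed T5 target plasmid.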

Sequence	recombinant UMI read abundance (log10)
AGATCAGCATGGACCGGTTTTCCCGGTAATCCGTATTTGCT (site AGATCAGCTAG)	2.68
AGATCAGCATGGACCGGTTTTCCCGGTAATCCGTATTTGCT (site CGATCATCTAG)	0
AGATCAGCATGGACCGGTTTTCCCGGTAATCCGTATTTGGG (site AGATCAGCTCC)	0.224
AGATCAGCATGGACCGGTTTTCCCGGTAATCCGTATTTGGG (site AGCTCAGCTCC)	0.00476
AGATCAGCATGGACCGGTTTTCCCGGTAATCCGTATTTGGG (site AGGTCAGCTCC)	0.014
AGATCAGCATGGACCGGTTTTCCCGGTAATCCGTATTTGGG (site AGTTCAGCTCC)	0.296
AGATCCTCATGGACCGGTTTTCCCGGTAATCCGTATTTGTT (site AGATCCTCTAA)	2.08
AGATCGACATGGACCGGTTTTCCCGGTAATCCGTATTTGTT (site AGATCGACTAA)	0.688
AGATCGACATGGACCGGTTTTCCCGGTAATCCGTATTTGTT (site CGATCGACTAA)	0.0123
AGATCGACATGGACCGGTTTTCCCGGTAATCCGTATTTGTT (site GGATCGACTAA)	0.012
AGATCGACATGGACCGGTTTTCCCGGTAATCCGTATTTGTT (site TGATCGACTAA)	0.00951
AGATGCGCATGGACCGGTTTTCCCGGTAATCCGTATTTGAG (site AGATGCGCTCT)	1.86
AGATGGGCATGGACCGGTTTTCCCGGTAATCCGTATTTGGA (site AGATGGGCTTC)	1.22
AGATTATCATGGACCGGTTTTCCCGGTAATCCGTATTTGCT (site AGATTATCTAG)	2.71
AGATTATCATGGACCGGTTTTCCCGGTAATCCGTATTTGCT (site CGATCATCTAG)	0
AGCAAGACATGGACCGGTTTTCCCGGTAATCCGTATTTGCT (site AGCAAGACTAG)	1.94

Sequence	recombinant UMI read abundance (log10)
AGCAAGACATGGACCGGTTTTCCCGGTAATCCGTATTTGCT (site AGGAAGACTTG)	0
AGCAAGACATGGACCGGTTTTCCCGGTAATCCGTATTTGGA (site AGCAAGACTTC)	1.8
AGCAAGACATGGACCGGTTTTCCCGGTAATCCGTATTTGGA (site AGGAAGACTTG)	0
AGCAAGGCATGGACCGGTTTTCCCGGTAATCCGTATTTGCT (site AGAAAGGCTAG)	0
AGCAAGGCATGGACCGGTTTTCCCGGTAATCCGTATTTGCT (site AGCAAGGCTAG)	2.61
AGCAAGGCATGGACCGGTTTTCCCGGTAATCCGTATTTGCT (site AGGAAGGCTAG)	0.0349
AGCAAGGCATGGACCGGTTTTCCCGGTAATCCGTATTTGCT (site AGTAAGGCTAG)	0.238
AGCAATCCATGGACCGGTTTTCCCGGTAATCCGTATTTGAA (site AGCAATCCTTT)	1.33
AGCAATCCATGGACCGGTTTTCCCGGTAATCCGTATTTGAA (site CGCAATCCTTT)	0
AGCAATCCATGGACCGGTTTTCCCGGTAATCCGTATTTGAA (site GGCAATCCTTT)	0.00676
AGCAATCCATGGACCGGTTTTCCCGGTAATCCGTATTTGAA (site TGCAATCCTTT)	0.186
AGCACGTCATGGACCGGTTTTCCCGGTAATCCGTATTTGAC (site AGCACGTCTGT)	2.28
AGCAGATCATGGACCGGTTTTCCCGGTAATCCGTATTTGAA (site AGCAGATCTTT)	1.77
AGCAGTACATGGACCGGTTTTCCCGGTAATCCGTATTTGCG (site AGCAGTACTCG)	1.25
AGCAGTGCATGGACCGGTTTTCCCGGTAATCCGTATTTGAG (site AGCAGTGCTCT)	1.93
AGCATTACATGGACCGGTTTTCCCGGTAATCCGTATTTGAT (site AGCATTACTAT)	1.01
